{"source": "patent EP0643964A2", "about": "(priority 1993, dated 1995)", "key": {"pseudocholines-terase": {"target": "pseudocholines-terase (Homo sapiens, UniProt P06276)", "sequence (P06276 29-602, species assumed)": "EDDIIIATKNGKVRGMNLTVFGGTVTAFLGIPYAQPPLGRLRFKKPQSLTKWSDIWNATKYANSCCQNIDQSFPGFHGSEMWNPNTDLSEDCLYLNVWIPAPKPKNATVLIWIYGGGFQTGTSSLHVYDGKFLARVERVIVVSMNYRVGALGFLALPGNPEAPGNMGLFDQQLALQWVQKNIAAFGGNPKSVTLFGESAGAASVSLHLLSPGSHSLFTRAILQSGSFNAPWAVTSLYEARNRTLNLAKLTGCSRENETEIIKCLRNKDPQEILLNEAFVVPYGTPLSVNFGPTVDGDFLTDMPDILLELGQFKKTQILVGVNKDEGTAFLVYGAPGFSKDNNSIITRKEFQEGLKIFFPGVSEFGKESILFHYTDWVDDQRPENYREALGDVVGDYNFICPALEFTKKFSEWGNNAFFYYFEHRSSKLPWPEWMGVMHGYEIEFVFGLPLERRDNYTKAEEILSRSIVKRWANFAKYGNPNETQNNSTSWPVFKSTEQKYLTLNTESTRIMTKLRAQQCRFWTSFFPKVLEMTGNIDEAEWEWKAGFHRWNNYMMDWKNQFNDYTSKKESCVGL", "settings": "cited from earlier work"}, "herpes simplex": {"tested_on": "herpes simplex", "test": "Evolution of recidivant periorificial herpes simplex infection in volunteers", "format": "in vivo, human", "method": "Patients were divided into 3 groups: one of the groups (n=4) received acyclovir by oral route and topical applications of the same drug. […] Experiments began with the appearance of the next episode of herpes, just in the moment when vesicles appeared.\nAll these patients were controlled monthly during the following 4 months. During this time, group A patients presented episodes with a pattern similar to that they had before the experiment was performed. […] The remaining two presented an episode of herpes 2.8 and 3.3 months later."}, "Giardia lamblia": {"tested_on": "Giardia lamblia", "test": "Patients with malabsorption syndrome (MAS) caused by Giardia lamblia", "format": "in vivo, human", "settings": "Volunteer # 1, 7 days of treatment; recurrence one month later", "text": "Volunteer # 1: Type II MAS with positive isolation of Giardia lamblia in duodenal washings and confirmation of the disease by histopathology. […] One month later, patient 1 presented symptoms and signs of recurrence of the disease, with positive isolation of parasites in feces.\nVolunteer # 2: with diffuse abdominal pain, loss of body weight and steatorrhea."}, "[1]": {"settings": "in vivo; cited from earlier work"}, "[2]": {"settings": "global anesthesia by intravenous route; one death in more than 6200 patients; cited from earlier work"}, "M3 tumor": {"tested_on": "M3 tumor", "test": "M3 transplanted mice, tumor area (lidocaine and epidoxorrubicine)", "format": "in vivo"}, "[3]": {"settings": "herpes simplex episode, ACV oral+topical, lidocaine 5 ml 2% i.v. twice a day 2 days"}}, "note": "“And” between values parts separate entries of the source, which are not always exact repeats. Identical values can stand only once.", "data": [{"compound": "CCCCNc1ccc(C(=O)OCCN(C)C)cc1", "note": "[tetracaine]", "values": [{"measurement": "velocity of cleavage relative to procaine", "setting": "pseudocholines-terase", "result": "about 5 times more slowly than procaine"}]}, {"compound": "Nc1nc2c(ncn2COCCO)c(=O)[nH]1", "note": "[ACV, acyclovir]", "values": [{"measurement": "Duration of lesions", "setting": "herpes simplex; [3]", "result": 7, "unit": "days"}, {"measurement": "Duration of symptoms", "setting": "herpes simplex; [3]", "result": 4, "unit": "days"}, {"measurement": "FIRST EPISODE AFTER TREATMENT", "setting": "herpes simplex; individual patients, followed monthly for 4 months", "result": "31 d. and 29 d d. and 33 d d. and 40 d."}]}, {"compound": "Cc1ncc([N+](=O)[O-])n1CCO", "note": "[metronidazole]", "values": [{"measurement": "Clinical evolution", "setting": "Giardia lamblia", "result": "good evolution"}]}, {"compound": "CCN(CC)CCOC(=O)c1ccc(N)cc1", "note": "[procaine]", "values": [{"measurement": "half life", "setting": "[1]", "result": "about 0.7 minutes"}, {"measurement": "cleavage rate", "setting": "pseudocholines-terase; hydrolysis in blood plasma and liver", "result": 20, "unit": "mg. per minute"}, {"measurement": "deaths", "setting": "[2]", "result": "less than 0.01%"}]}, {"compound": "COc1cccc2c1C(=O)c1c(O)c3c(c(O)c1C2=O)C[C@@](O)(C(=O)CO)C[C@@H]3O[C@H]1C[C@H](N)[C@@H](O)[C@H](C)O1", "note": "[epidoxorrubicine]", "values": [{"measurement": "Area (tumor)", "setting": "M3 tumor; day 7 p-t (day 0), lidocaine 0.1 ml 0.05% every 7 days, epidoxorrubicine 0.125 ml 0.2% every 7 days, combination: lidocaine 2 days after epidoxorrubicine", "result": 0.46}, {"measurement": "Area (tumor)", "setting": "M3 tumor; day 10 p-t, regimens as Table 5 footnotes, saline control 0.92", "result": 0.90}, {"measurement": "I/Ø: Percentual increment over tumor in day 0 (day 7 p-t)", "setting": "M3 tumor; day 10 p-t, saline control 103.47", "result": 95.65, "unit": "%"}, {"measurement": "Area (tumor)", "setting": "M3 tumor; day 12 p-t, regimens as Table 5 footnotes, saline control 1.56", "result": 1.56}, {"measurement": "I/Ø: Percentual increment over tumor in day 0 (day 7 p-t)", "setting": "M3 tumor; day 12 p-t, saline control 245.61", "result": 238.04, "unit": "%"}, {"measurement": "Area (tumor)", "setting": "M3 tumor; day 14 p-t, regimens as Table 5 footnotes, saline control 2.06", "result": 2.36}, {"measurement": "I/Ø: Percentual increment over tumor in day 0 (day 7 p-t)", "setting": "M3 tumor; day 14 p-t, saline control 357.57", "result": 413.04, "unit": "%"}, {"measurement": "I/Ø: Percentual increment over tumor in day 0 (day 7 p-t)", "setting": "M3 tumor; day 16 p-t, saline control 516.74", "result": 316.30, "unit": "%"}, {"measurement": "Area (tumor)", "setting": "M3 tumor; day 18 p-t, regimens as Table 5 footnotes, saline control 3.61", "result": 2.41}, {"measurement": "I/Ø: Percentual increment over tumor in day 0 (day 7 p-t)", "setting": "M3 tumor; day 18 p-t, saline control 701.39", "result": 422.83, "unit": "%"}, {"measurement": "Area (tumor)", "setting": "M3 tumor; day 21 p-t, regimens as Table 5 footnotes, saline control 4.61", "result": 3.39}, {"measurement": "I/Ø: Percentual increment over tumor in day 0 (day 7 p-t)", "setting": "M3 tumor; day 21 p-t, saline control 923.86", "result": 637.68, "unit": "%"}, {"measurement": "Area (tumor)", "setting": "M3 tumor; day 23 p-t, regimens as Table 5 footnotes, saline control 5.49", "result": 3.57}, {"measurement": "I/Ø: Percentual increment over tumor in day 0 (day 7 p-t)", "setting": "M3 tumor; day 23 p-t, saline control 1119.69", "result": 676.81, "unit": "%"}, {"measurement": "Area (tumor)", "setting": "M3 tumor; day 25 p-t, regimens as Table 5 footnotes, saline control 6.24", "result": 4.16}, {"measurement": "I/Ø: Percentual increment over tumor in day 0 (day 7 p-t)", "setting": "M3 tumor; day 25 p-t, saline control 1286.33", "result": 804.35, "unit": "%"}, {"measurement": "Area (tumor)", "setting": "M3 tumor; mouse, in vivo", "result": 1.92}]}]}
